Data: patent publication US8674113B2, “Compounds” (Boehringer Ingelheim International GmbH, priority 2010, dated 2014)

Key:
[1] = molecular target: recombinant human mPGES-1 (Homo sapiens (Human), UniProt O14684); assay: mPGES-1 enzyme assay (HTRF detection of PGE2); assay type: biochemical; conditions: recombinant human mPGES-1 microsomes, PGH2 2 μM, 60 seconds; read-out: mPGES-1 inhibitory effect IC50 in the enzyme assay
Procedure, shortened: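 Microsomes from E. coli expressing recombinant human mPGES-1 (~0.5 μg protein/well) in 0.1 M phosphate pH 7.4 with 2.5 mM GSH, pre-incubated with compound 25 min at room temperature. PGH2 (2 μM final) added, reaction stopped with FeCl2 after 60 s; PGE2 quantified by HTRF (665/620 ratio) against a calibration curve, IC50 by nonlinear regression after background subtraction.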

mPGES-1 in A549 cells = mPGES-1 in A549 cells (Homo sapiens (Human), UniProt O14684); assay: A549 cell-based assay (PGE2 formation, 50% human serum); conditions: IL-1β 5 ng/ml, 10 nM arachidonic acid, 20-24 h, read-out: mPGES-1 inhibitory effect IC50 in the cell assay
Sequence of mPGES-1 in A549 cells (O14684 whole entry): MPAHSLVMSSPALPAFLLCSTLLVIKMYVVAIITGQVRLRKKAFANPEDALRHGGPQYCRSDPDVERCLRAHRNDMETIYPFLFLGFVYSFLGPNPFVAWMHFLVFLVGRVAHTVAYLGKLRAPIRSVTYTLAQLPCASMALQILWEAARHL
Procedure, shortened: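 A549 cells in F-12K with 50% human serum were stimulated 20-24 h with 5 ng/ml IL-1β and 10 nM arachidonic acid in presence of compound or vehicle. PGE2 in the cell-free medium was measured by HTRF, normalised to vehicle (100%). IC50 from 6-8 point titrations.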

Sequence of recombinant human mPGES-1 (O14684 whole entry): as above

SMILES | IC50 [1] [nM] | IC50 (mPGES-1 in A549 cells) [nM]
Cn1c(Nc2c(Cl)ccc(CNC(=O)C(C)(C)C)c2Cl)nc2cc(C(=O)N[C@H]3CC[C@H](C(F)(F)F)CC3)c(N3CCC3)cc21 [Example 96] | 16 | 21
COC1CN(c2cc3c(cc2C(=O)N[C@H]2CC[C@H](C(F)(F)F)CC2)nc(Nc2c(Cl)ccc(CNC(=O)C(C)(C)C)c2Cl)n3C)C1 [Example 98] | 5 | 5
Cn1c(Nc2c(Cl)ccc(CNC(=O)C(C)(C)C)c2Cl)nc2cc(C(=O)N[C@H]3CC[C@H](C(F)(F)F)CC3)c(N3CC(OC(F)F)C3)cc21 [Example 99] | 1 | 5
Cn1c(Nc2c(Cl)ccc(CNC(=O)C(C)(C)C)c2Cl)nc2cc(C(=O)N[C@H]3CC[C@H](C(F)(F)F)CC3)c(N3CCC(C(F)(F)F)C3)cc21 (some centres unmarked) [Example 100] | 3 | 1
Cn1c(Nc2c(Cl)ccc(CNC(=O)C(C)(C)C)c2Cl)nc2cc(C(=O)N[C@H]3CC[C@H](C(F)(F)F)CC3)c(N3CC4CCCC4C3)cc21 (some centres unmarked) [Example 101] | 2 | 1.5
Cn1c(Nc2c(Cl)ccc(CNC(=O)C(C)(C)C)c2Cl)nc2cc(C(=O)N[C@H]3CC[C@H](C(F)(F)F)CC3)c(N3CC4COCC4C3)cc21 (some centres unmarked) [Example 102] | 2 | 1.5
Cn1c(Nc2c(Cl)ccc(CNC(=O)C(C)(C)C)c2Cl)nc2cc(C(=O)N[C@H]3CC[C@H](C(F)(F)F)CC3)c(N3CCN(C4CC4)CC3)cc21 [Example 108] | 1 | < 1
CN(Cc1ccc(F)cc1)c1cc2c(cc1C(=O)N[C@H]1CC[C@H](C(F)(F)F)CC1)nc(Nc1c(Cl)ccc(CNC(=O)C(C)(C)C)c1Cl)n2C [Example 110, N-(trans-4-Trifluoromethyl-cyclohexyl)-2-{2,6-dichloro-3-[(2,2-dimethyl-propionylamino)-methyl]-phenylamino}-6-[N-methyl-N-(4-fluorobenzyl)amino]-1-methyl-1H-benzimidazole-5-carboxylic acid amide] | 2 | 1.6
Cn1ccnc1CNc1cc2c(cc1C(=O)N[C@H]1CC[C@H](C(F)(F)F)CC1)nc(Nc1c(Cl)ccc(CNC(=O)C(C)(C)C)c1Cl)n2C [Example 113] | 8 | 62
CN(c1cc2c(cc1C(=O)N[C@H]1CC[C@H](C(F)(F)F)CC1)nc(Nc1c(Cl)ccc(CNC(=O)C(C)(C)C)c1Cl)n2C)C1CCSC1 (stereo partly drawn) [Example 117, N-(trans-4-trifluoromethyl-cyclohexyl)-2-{2,6-dichloro-3-[(2,2-dimethyl-propionylamino)-methyl]-phenylamino}-6-[N-methyl-N-(tetrahydro-thiophen-3-yl)-amino]-1-methyl-1H-benzimidazole-5-carboxylic acid amide] | 2 | 2
CN(c1cc2c(cc1C(=O)N[C@H]1CC[C@H](C(F)(F)F)CC1)nc(Nc1c(Cl)ccc(CNC(=O)C(C)(C)C)c1Cl)n2C)C1CC[S+]([O-])C1 (stereo partly drawn) [Example 118, N-(trans-4-Trifluoromethyl-cyclohexyl)-2-{2,6-dichloro-3-[(2,2-dimethyl-propionylamino)-methyl]-phenylamino}-6-[N-methyl-N-(1-oxo-tetrahydro-thiophen-3-yl)-amino]-1-methyl-1H-benzimidazole-5-carboxylic acid amide] | 3 | 10
CN(c1cc2c(cc1C(=O)N[C@H]1CC[C@H](C(F)(F)F)CC1)nc(Nc1c(Cl)ccc(CNC(=O)C(C)(C)C)c1Cl)n2C)C1CCS(=O)(=O)C1 (stereo partly drawn) [Example 119, N-(trans-4-Trifluoromethyl-cyclohexyl)-2-{2,6-dichloro-3-[(2,2-dimethyl-propionylamino)-methyl]-phenylamino}-6-[N-methyl-N-(1,1-dioxo-tetrahydro-thiophen-3-yl)-amino]-1-methyl-1H-benzimidazole-5-carboxylic acid amide] | 2 | 1
Cn1c(Nc2c(Cl)ccc(CNC(=O)C(C)(C)F)c2Cl)nc2cc(C(=O)N[C@H]3CC[C@H](C(F)(F)F)CC3)c(N3CC[C@@H](F)C3)cc21 [Example 120] | 3 | 1
Cn1c(Nc2c(Cl)ccc(CNC(=O)C(C)(C)C)c2Cl)nc2cc(C(=O)N[C@H]3CC[C@H](C(F)(F)F)CC3)c(N3CCC4(CC4)C3)cc21 [Example 121] | 3 | 2
Cn1c(Nc2c(Cl)ccc(CNC(=O)C(C)(C)C)c2Cl)nc2cc(C(=O)N[C@H]3CC[C@H](C(F)(F)F)CC3)c(N3CC4CCC4C3)cc21 (some centres unmarked) [Example 122] | 3 | 1
Cn1c(Nc2c(Cl)ccc(CNC(=O)C(C)(C)C)c2Cl)nc2cc(C(=O)N[C@H]3CC[C@H](C(F)(F)F)CC3)c(N3C[C@H]4C[C@@H](C3)[C@H]4O)cc21 [Example 126] | 2 | 1
Cn1c(Nc2c(Cl)ccc(CNC(=O)C(C)(C)C(F)(F)F)c2Cl)nc2cc(C(=O)N[C@H]3CC[C@H](C(F)(F)F)CC3)c(N3CC[C@@H](F)C3)cc21 [Example 128] | 2 | 1

Now from value to molecule:

IC50 [1] [nM] | IC50 (mPGES-1 in A549 cells) [nM] | SMILES
1 | < 1 | C#CCN(C)c1cc2c(cc1C(=O)N[C@H]1CC[C@H](C(F)(F)F)CC1)nc(Nc1c(Cl)ccc(CNC(=O)C(C)(C)C)c1Cl)n2C [Example 103, N-(trans-4-Trifluoromethyl-cyclohexyl)-2-{2,6-dichloro-3-[(2,2-dimethyl-propionylamino)-methyl]-phenylamino}-6-[N-methyl-N-propargylamino]-1-methyl-1H-benzimidazole-5-carboxylic acid amide]
2 | 1 | COC(C)CN(C)c1cc2c(cc1C(=O)N[C@H]1CC[C@H](C(F)(F)F)CC1)nc(Nc1c(Cl)ccc(CNC(=O)C(C)(C)C)c1Cl)n2C (some centres unmarked) [Example 104]
2 | 10 | CN(CCS(C)(=O)=O)c1cc2c(cc1C(=O)N[C@H]1CC[C@H](C(F)(F)F)CC1)nc(Nc1c(Cl)ccc(CNC(=O)C(C)(C)C)c1Cl)n2C [Example 105]
2 | < 1 | CC(O)CN(C)c1cc2c(cc1C(=O)N[C@H]1CC[C@H](C(F)(F)F)CC1)nc(Nc1c(Cl)ccc(CNC(=O)C(C)(C)C)c1Cl)n2C (some centres unmarked) [Example 106]
1 | < 1 | CN(CC1(C)CC1)c1cc2c(cc1C(=O)N[C@H]1CC[C@H](C(F)(F)F)CC1)nc(Nc1c(Cl)ccc(CNC(=O)C(C)(C)C)c1Cl)n2C [Example 107]
2 | 1 | CN(CC(C)(C)O)c1cc2c(cc1C(=O)N[C@H]1CC[C@H](C(F)(F)F)CC1)nc(Nc1c(Cl)ccc(CNC(=O)C(C)(C)C)c1Cl)n2C [Example 109]
2 | 22 | CN(CC(N)=O)c1cc2c(cc1C(=O)N[C@H]1CC[C@H](C(F)(F)F)CC1)nc(Nc1c(Cl)ccc(CNC(=O)C(C)(C)F)c1Cl)n2C [Example 111]
3 | 1 | CN(CC#N)c1cc2c(cc1C(=O)N[C@H]1CC[C@H](C(F)(F)F)CC1)nc(Nc1c(Cl)ccc(CNC(=O)C(C)(C)C)c1Cl)n2C [Example 112, N-(trans-4-Trifluoromethyl-cyclohexyl)-2-{2,6-dichloro-3-[(2,2-dimethyl-propionylamino)-methyl]-phenylamino}-6-[N-methyl-N-cyanomethyl-amino]-1-methyl-1H-benzimidazole-5-carboxylic acid amide]
